From ChEMBL document CHEMBL1201861, “Genomics of Drug Sensitity in Cancer screening data, Wellcome Trust Sanger Institute”

How the values were obtained:
Assay in all cases: cells
[1] = test system: ACN; format: functional, cell-based, Homo sapiens; conditions: Homo sapiens, ACN;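 further: growth inhibition of the human ACN cell line, read out via cell viability testing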
Description: SANGER: Inhibition of human ACN cell growth in a cell viability assay.

[2] = test system: K5; format: functional, cell-based, Homo sapiens; conditions: Homo sapiens, K5
Description: SANGER: Inhibition of human K5 cell growth in a cell viability assay.

[3] = test system: OMC-1; format: functional, cell-based, Homo sapiens; conditions: Homo sapiens, OMC-1;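 further: growth inhibition of the OMC-1 cell line, measured by a cell viability assay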
Description: SANGER: Inhibition of human OMC-1 cell growth in a cell viability assay.

[4] = test system: EOL1; format: functional, cell-based; conditions: Homo sapiens;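 further: growth inhibition of EoL-1 cells, read out by a cell viability assay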
Description: SANGER: Inhibition of human EoL-1-cell cell growth in a cell viability assay.

[5] = test system: KM-H2; format: functional, cell-based; conditions: Homo sapiens;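 further: growth inhibition of KM-H2 cells, read out by a cell viability assay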
Description: SANGER: Inhibition of human KM-H2 cell growth in a cell viability assay.

[6] = test system: DOHH-2; format: functional, cell-based; conditions: Homo sapiens;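 further: growth inhibition of human DOHH-2 cells, read out with a cell viability assay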
Description: SANGER: Inhibition of human DOHH-2 cell growth in a cell viability assay.

[7] = test system: SK-PN-DW; format: functional, cell-based; conditions: Homo sapiens;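 further: growth inhibition measured with a viability assay on these cells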
Description: SANGER: Inhibition of human SK-PN-DW cell growth in a cell viability assay.

[8] = test system: HuTu80; format: functional, cell-based, Homo sapiens, HUTU-80; conditions: Homo sapiens, HuTu80;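 further: growth inhibition of HuTu80 human cells, determined with a cell viability readout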
Description: SANGER: Inhibition of human HUTU-80 cell growth in a cell viability assay.

[9] = test system: MFM-223; format: functional, cell-based, Homo sapiens; conditions: Homo sapiens, MFM-223
Description: SANGER: Inhibition of human MFM-223 cell growth in a cell viability assay.

[10] = test system: NH-12; format: functional, cell-based, Homo sapiens; conditions: Homo sapiens, NH-12;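 further: growth inhibition of NH-12 cells, read out with a cell viability assay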
Description: SANGER: Inhibition of human NH-12 cell growth in a cell viability assay.

[11] = test system: RH-1; format: functional, cell-based, Homo sapiens; conditions: Homo sapiens, RH-1;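 further: growth inhibition of human RH-1 cells, read out with a cell viability assay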
[12] = test system: SW 954; format: functional, cell-based, Homo sapiens; conditions: Homo sapiens, SW 954;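 further: growth inhibition of SW954 human cancer cells, read out as cell viability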
Description: SANGER: Inhibition of human SW954 cell growth in a cell viability assay.

[13] = test system: NCI-H1650; format: functional, cell-based, Homo sapiens; conditions: Homo sapiens, NCI-H1650;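 further: growth inhibition of human NCI-H1650 cells measured by a cell viability assay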
Description: SANGER: Inhibition of human NCI-H1650 cell growth in a cell viability assay.

[14] = test system: COLO-829; format: functional, cell-based, Homo sapiens; conditions: Homo sapiens, COLO-829
Description: SANGER: Inhibition of human COLO-829 cell growth in a cell viability assay.

[15] = test system: NCI-H526; format: functional, cell-based; conditions: Homo sapiens;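 further: growth inhibition of the human NCI-H526 cell line, measured by a cell viability assay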
Description: SANGER: Inhibition of human NCI-H526 cell growth in a cell viability assay.

[16] = test system: MLMA; format: functional, cell-based, Homo sapiens; conditions: Homo sapiens, MLMA;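 further: growth inhibition of MLMA cells (human), determined through a cell viability readout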
Description: SANGER: Inhibition of human MLMA cell growth in a cell viability assay.

[17] = test system: NB10; format: functional, cell-based, Homo sapiens; conditions: Homo sapiens, NB10;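 further: growth inhibition of NB10 cells, read out by a cell viability assay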
Description: SANGER: Inhibition of human NB10 cell growth in a cell viability assay.

[18] = test system: ES7; format: functional, cell-based, Homo sapiens; conditions: Homo sapiens, ES7;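 further: growth inhibition of cultured human ES7 cells, read out as cell viability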
Description: SANGER: Inhibition of human ES7 cell growth in a cell viability assay.

[19] = test system: BB49-HNC; format: functional, cell-based, Homo sapiens; conditions: Homo sapiens, BB49-HNC;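 further: cell viability assay read-out, reported as inhibition of BB49-HNC cell growth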
Description: SANGER: Inhibition of human BB49-HNC cell growth in a cell viability assay.

[20] = test system: GI-1; format: functional, cell-based, Homo sapiens; conditions: Homo sapiens, GI-1;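 further: growth inhibition of human GI-1 cells, measured with a cell viability readout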
Description: SANGER: Inhibition of human GI-1 cell growth in a cell viability assay.

[21] = test system: CGTH-W-1; format: functional, cell-based, Homo sapiens; conditions: Homo sapiens, CGTH-W-1;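 further: growth inhibition of human CGTH-W-1 cells measured by cell viability assay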
Description: SANGER: Inhibition of human CGTH-W-1 cell growth in a cell viability assay.

[22] = test system: DSH1; format: functional, cell-based, Homo sapiens; conditions: Homo sapiens, DSH1;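 further: growth inhibition of human DSH1 cells, measured with a cell viability readout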
Description: SANGER: Inhibition of human DSH1 cell growth in a cell viability assay.

[23] = test system: U-87 MG; format: functional, cell-based, U-87MG ATCC; conditions: Homo sapiens;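 further: growth inhibition of the cells measured with a viability assay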
Description: SANGER: Inhibition of human U-87-MG cell growth in a cell viability assay.

[24] = test system: KINGS-1; format: functional, cell-based, Homo sapiens; conditions: Homo sapiens, KINGS-1;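 further: cell viability assay measuring suppression of KINGS-1 cell growth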
Description: SANGER: Inhibition of human KINGS-1 cell growth in a cell viability assay.

[25] = test system: BV-173; format: functional, cell-based; conditions: Homo sapiens
Description: SANGER: Inhibition of human BV-173 cell growth in a cell viability assay.

[26] = test system: LB1047-RCC; format: functional, cell-based, Homo sapiens; conditions: Homo sapiens, LB1047-RCC;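 further: inhibition of cell growth, determined with a cell viability assay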
Description: SANGER: Inhibition of human LB1047-RCC cell growth in a cell viability assay.

| Structure (SMILES) | IC50 [1] [µM] | IC50 [2] [µM] | IC50 [3] [µM] | IC50 [4] [µM] | IC50 [5] [µM] | IC50 [6] [µM] | IC50 [7] [µM] | IC50 [8] [µM] | IC50 [9] [µM] | IC50 [10] [µM] | IC50 [11] [µM] | IC50 [12] [µM] | IC50 [13] [µM] | IC50 [14] [µM] | IC50 [15] [µM] | IC50 [16] [µM] | IC50 [17] [µM] | IC50 [18] [µM] | IC50 [19] [µM] | IC50 [20] [µM] | further results |
| --- | --- | --- | --- | --- | --- | --- | --- | --- | --- | --- | --- | --- | --- | --- | --- | --- | --- | --- | --- | --- | --- |
| CO[C@H]1C[C@@H]2CC[C@@H](C)[C@@](O)(O2)C(=O)C(=O)N2CCCC[C@H]2C(=O)O[C@H]([C@H](C)C[C@@H]2CC[C@@H](O)[C@H](OC)C2)CC(=O)[C@H](C)/C=C(\C)[C@@H](O)[C@@H](OC)C(=O)[C@H](C)C[C@H](C)/C=C/C=C/C=C/1C [SIROLIMUS] | > 0.1 | > 0.1 | > 0.1 | > 0.1 | > 0.1 | 0.00335 | 0.0202 | 0.00442 | > 0.1 | > 0.1 | > 0.1 | > 0.1 | > 0.1 | > 0.1 | 0.0936 | > 0.1 | > 0.1 | > 0.1 | > 0.1 | 0.0704 | IC50 [21]: > 0.1 µM; IC50 [22]: > 0.1 µM; IC50 [23]: > 0.1 µM; IC50 [24]: 0.0515 µM; IC50 [25]: 0.084 µM; IC50 [26]: 0.0347 µM |
| CCC(=O)N1CCN(c2ccc(-n3c(=O)ccc4cnc5ccc(-c6cnc7ccccc7c6)cc5c43)cc2C(F)(F)F)CC1 [TORIN1] | 0.015 | 0.064 | 0.078 | 0.03 | > 1.2 | 0.00225 | 0.0495 | 0.00929 | > 1.2 | > 1.2 | 0.28 | 0.0379 | > 1.2 | 0.207 | 0.91 | 0.0678 | > 1.2 | > 1.2 | 0.136 | 0.0247 | IC50 [21]: 0.184 µM; IC50 [22]: 0.0717 µM; IC50 [23]: > 1.2 µM; IC50 [24]: 0.058 µM; IC50 [25]: 0.022 µM; IC50 [26]: 0.0249 µM |
| Cc1cc(Nc2cc(N3CCN(C)CC3)nc(Sc3ccc(NC(=O)C4CC4)cc3)n2)n[nH]1 [TOZASERTIB] | > 2 | > 2 | > 2 | 0.335 | > 2 | 0.338 | 0.791 | 0.053 | > 2 | > 2 | > 2 | 0.122 | > 2 | > 2 | > 2 | > 2 | > 2 | > 2 | > 2 | > 2 | IC50 [21]: > 2 µM; IC50 [22]: > 2 µM; IC50 [23]: > 2 µM; IC50 [24]: > 2 µM; IC50 [25]: 0.126 µM; IC50 [26]: > 2 µM |
